Patent publication EP2768830B1, “APOPTOSIS-INDUCING AGENTS FOR THE TREATMENT OF CANCER AND IMMUNE AND AUTOIMMUNE DISEASES” (AbbVie Inc., priority 2011, dated 2013)
Where two headings read alike, the source gives them in different places.

Columns and labels:
[1] = system: mouse FL5.12 cells transfected with Bcl-XL; test: FL5.12 cellular assay (cell viability, CellTiter-Glo); type: cell-based; details: FL5.12 cells transfected with Bcl-XL, IL-3-depleted, 3% FBS assay media, 24 hours, CellTiter-Glo, read-out: FL5.12 Bcl-xL, - IL3, EC 50;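 further: each EC50 determination derived from duplicate measurements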
Experimental: For assaying the compound activity, the cells were exchanged into an IL-3-depleted deprivation media, which was identical to the growth media except for the absence of FBS and WEHI-3B conditional media, for 2 days. Then the cells were exchanged to 3% FBS assay media (RPMI with 2 mM glutamine, 1% 100 mM sodium pyruvate, 2% 1 M HEPES, 4 µL/L of β-mercaptoethanol, 1% penicillin-streptomycin, 3% FBS). Compounds in series dilutions were added, and the cells were cultured for 24 hours. Compounds in series dilutions were added, and the cells were cultured for 24 hours. Cell viability was assayed using the CellTiter-Glo assay (Promega Corp., Madison, WI) according to the manufacturer instructions. Individual determinations were the result of duplicate values.

GST-Bcl-xL = GST-Bcl-xL (Homo sapiens, UniProt Q07817); details: read-out: TR-FRET binding Bcl-xL Ki
Chain of GST-Bcl-xL (Q07817 whole entry): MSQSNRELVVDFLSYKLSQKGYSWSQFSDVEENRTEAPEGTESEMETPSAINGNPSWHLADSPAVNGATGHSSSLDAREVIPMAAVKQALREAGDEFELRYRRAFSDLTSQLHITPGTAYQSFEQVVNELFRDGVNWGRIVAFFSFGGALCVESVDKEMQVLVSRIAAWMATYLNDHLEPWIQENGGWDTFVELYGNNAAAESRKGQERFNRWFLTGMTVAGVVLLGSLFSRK

SMILES: Cc1c(-c2ccc(N3CCc4cccc(C(=O)Nc5nc6ccccc6s5)c4C3)nc2C(=O)O)cnn1Cc1ccccc1OCCN1CCOCC1 [Example 79, 6-[8-(1,3-benzothiazol-2-ylcarbamoyl)-3,4-dihydroisoquinolin-2(1H)-yl]-3-(5-methyl-1-{2-[2-(morpholin-4-yl)ethoxy]benzyl}-1H-pyrazol-4-yl)pyridine-2-carboxylic acid]
- EC50 ([1]; Mus musculus): 19 nM
- Ki (GST-Bcl-xL): 0.5 nM

SMILES: CN(C)c1ccccc1Cn1cc(-c2ccc(N3CCc4cccc(C(=O)Nc5nc6ccccc6s5)c4C3)nc2C(=O)O)cn1 [Example 80, 6-[8-(1,3-benzothiazol-2-ylcarbamoyl)-3,4-dihydroisoquinolin-2(1H)-yl]-3-{1-[2-(dimethylamino)benzyl]-1H-pyrazol-4-yl}pyridine-2-carboxylic acid]
- EC50 ([1]; Mus musculus): 253 nM
- Ki (GST-Bcl-xL): 4 nM

SMILES: Cc1c(-c2ccc(N3CCc4cccc(C(=O)Nc5nc6ccccc6s5)c4C3)nc2C(=O)O)cnn1Cc1ccccc1OCCCN1CCOCC1 [Example 81, 6-[8-(1,3-benzothiazol-2-ylcarbamoyl)-3,4-dihydroisoquinolin-2(1H)-yl]-3-(5-methyl-1-{2-[3-(morpholin-4-yl)propoxy]benzyl}-1H-pyrazol-4-yl)pyridine-2-carboxylic acid]
- EC50 ([1]; Mus musculus): 37 nM
- Ki (GST-Bcl-xL): 0.6 nM

SMILES: Cc1c(-c2ccc(N3CCc4cccc(C(=O)Nc5nc6ccccc6s5)c4C3)nc2C(=O)O)cnn1CC1(C)CCCCC1 [Example 82, 6-[8-(1,3-benzothiazol-2-ylcarbamoyl)-3,4-dihydroisoquinolin-2(1H)-yl]-3-{5-methyl-1-[(1-methylcyclohexyl)methyl]-1H-pyrazol-4-yl}pyridine-2-carboxylic acid]
- EC50 ([1]; Mus musculus): 8 nM
- Ki (GST-Bcl-xL): 0.5 nM

SMILES: CC1(C)CCC(Cn2cc(-c3ccc(N4CCc5cccc(C(=O)Nc6nc7ccccc7s6)c5C4)nc3C(=O)O)cn2)=C(c2ccc(Cl)cc2)C1 [Example 83, 6-[8-(1,3-benzothiazol-2-ylcarbamoyl)-3,4-dihydroisoquinolin-2(1H)-yl]-3-(1-{[2-(4-chlorophenyl)-4,4-dimethylcyclohex-1-en-1-yl]methyl}-1H-pyrazol-4-yl)pyridine-2-carboxylic acid]
- EC50 ([1]; Mus musculus): > 1000 nM
- Ki (GST-Bcl-xL): 0.5 nM

SMILES: CCc1c(-c2ccc(N3CCc4cccc(C(=O)Nc5nc6ccccc6s5)c4C3)nc2C(=O)O)cnn1CC1CCCCC1 [Example 84, 6-[8-(1,3-benzothiazol-2-ylcarbamoyl)-3,4-dihydroisoquinolin-2(1H)-yl]-3-[1-(cyclohexylmethyl)-5-ethyl-1H-pyrazol-4-yl]pyridine-2-carboxylic acid]
- EC50 ([1]; Mus musculus): 12 nM
- Ki (GST-Bcl-xL): 0.7 nM

SMILES: CC(C)CC1(Cn2cc(-c3ccc(N4CCc5cccc(C(=O)Nc6nc7ccccc7s6)c5C4)nc3C(=O)O)cn2)CCCCC1 [Example 87, 6-[8-(1,3-benzothiazol-2-ylcarbamoyl)-3,4-dihydroisoquinolin-2(1H)-yl]-3-(1-{[1-(2-methylpropyl)cyclohexyl]methyl}-1H-pyrazol-4-yl)pyridine-2-carboxylic acid]
- EC50 ([1]; Mus musculus): 124 nM
- Ki (GST-Bcl-xL): 4 nM

SMILES: COCCC1(Cn2cc(-c3ccc(N4CCc5cccc(C(=O)Nc6nc7ccccc7s6)c5C4)nc3C(=O)O)cn2)CCCCC1 [Example 88, 6-[8-(1,3-benzothiazol-2-ylcarbamoyl)-3,4-dihydroisoquinolin-2(1H)-yl]-3-(1-{[1-(2-methoxyethyl)cyclohexyl]methyl}-1H-pyrazol-4-yl)pyridine-2-carboxylic acid]
- EC50 ([1]; Mus musculus): 229 nM
- Ki (GST-Bcl-xL): 3 nM

SMILES: COCCOc1ccccc1Cn1ncc(-c2ccc(N3CCc4cccc(C(=O)Nc5nc6ccccc6s5)c4C3)nc2C(=O)O)c1C [Example 89, 6-[8-(1,3-benzothiazol-2-ylcarbamoyl)-3,4-dihydroisoquinolin-2(1H)-yl]-3-{1-[2-(2-methoxyethoxy)benzyl]-5-methyl-1H-pyrazol-4-yl}pyridine-2-carboxylic acid]
- EC50 ([1]; Mus musculus): 23 nM
- Ki (GST-Bcl-xL): 0.5 nM

SMILES: CC1(C)CCCC(Cn2cc(-c3ccc(N4CCc5cccc(C(=O)Nc6nc7ccccc7s6)c5C4)nc3C(=O)O)cn2)C1 (stereo not drawn) [Example 92, 6-[8-(1,3-benzothiazol-2-ylcarbamoyl)-3,4-dihydroisoquinolin-2(1H)-yl]-3-{1-[(3,3-dimethylcyclohexyl)methyl]-1H-pyrazol-4-yl}pyridine-2-carboxylic acid]
- EC50 ([1]; Mus musculus): 56 nM
- Ki (GST-Bcl-xL): 2 nM

SMILES: COCCC(c1ccccc1)n1cc(-c2ccc(N3CCc4cccc(C(=O)Nc5nc6ccccc6s5)c4C3)nc2C(=O)O)cn1 (stereo not drawn) [Example 93, 6-[8-(1,3-benzothiazol-2-ylcarbamoyl)-3,4-dihydroisoquinolin-2(1H)-yl]-3-[1-(3-methoxy-1-phenylpropyl)-1H-pyrazol-4-yl]pyridine-2-carboxylic acid]
- EC50 ([1]; Mus musculus): 295 nM
- Ki (GST-Bcl-xL): 16 nM

SMILES: COCCCC(c1ccccc1)n1cc(-c2ccc(N3CCc4cccc(C(=O)Nc5nc6ccccc6s5)c4C3)nc2C(=O)O)cn1 (stereo not drawn) [Example 94, 6-[8-(1,3-benzothiazol-2-ylcarbamoyl)-3,4-dihydroisoquinolin-2(1H)-yl]-3-[1-(4-methoxy-1-phenylbutyl)-1H-pyrazol-4-yl]pyridine-2-carboxylic acid]
- EC50 ([1]; Mus musculus): 253 nM
- Ki (GST-Bcl-xL): 5 nM

SMILES: COC(=O)C(c1ccccc1)n1cc(-c2ccc(N3CCc4cccc(C(=O)Nc5nc6ccccc6s5)c4C3)nc2C(=O)O)cn1 (stereo not drawn) [Example 95, 6-[8-(1,3-benzothiazol-2-ylcarbamoyl)-3,4-dihydroisoquinolin-2(1H)-yl]-3-[1-(2-methoxy-2-oxo-1-phenylethyl)-1H-pyrazol-4-yl]pyridine-2-carboxylic acid]
- EC50 ([1]; Mus musculus): 542 nM
- Ki (GST-Bcl-xL): 11 nM

SMILES: O=C(Nc1nc2ccccc2s1)c1cccc2c1CN(c1ccc(-c3cnn(C(CC4CCCCC4)c4ccccc4)c3)c(C(=O)O)n1)CC2 (stereo not drawn) [Example 96, 6-[8-(1,3-benzothiazol-2-ylcarbamoyl)-3,4-dihydroisoquinolin-2(1H)-yl]-3-[1-(2-cyclohexyl-1-phenylethyl)-1H-pyrazol-4-yl]pyridine-2-carboxylic acid]
- EC50 ([1]; Mus musculus): 620 nM
- Ki (GST-Bcl-xL): 12 nM

SMILES: COCCCC1(Cn2ncc(-c3ccc(N4CCc5cccc(C(=O)Nc6nc7ccccc7s6)c5C4)nc3C(=O)O)c2C)CCCCC1 [Example 97, 6-[8-(1,3-benzothiazol-2-ylcarbamoyl)-3,4-dihydroisoquinolin-2(1H)-yl]-3-(1-{[1-(3-methoxypropyl)cyclohexyl]methyl}-5-methyl-1H-pyrazol-4-yl)pyridine-2-carboxylic acid]
- EC50 [1]: < 1 nM
- Ki (GST-Bcl-xL): 2 nM

SMILES: Cc1c(-c2ccc(N3CCc4cccc(C(=O)Nc5nc6ccccc6s5)c4C3)nc2C(=O)O)cnn1Cc1ccccc1OCC(C)(CO)CO [Example 98, 6-[8-(1,3-benzothiazol-2-ylcarbamoyl)-3,4-dihydroisoquinolin-2(1H)-yl]-3-(1-{2-[3-hydroxy-2-(hydroxymethyl)-2-methylpropoxy]benzyl}-5-methyl-1H-pyrazol-4-yl)pyridine-2-carboxylic acid]
- EC50 ([1]; Mus musculus): 421 nM
- Ki (GST-Bcl-xL): 2 nM

SMILES: Cc1c(-c2ccc(N3CCc4cccc(C(=O)Nc5nc6ccccc6s5)c4C3)nc2C(=O)O)cnn1Cc1ccccc1OCC1COCCO1 (stereo not drawn) [Example 100, 6-[8-(1,3-benzothiazol-2-ylcarbamoyl)-3,4-dihydroisoquinolin-2(1H)-yl]-3-{1-[2-(1,4-dioxan-2-ylmethoxy)benzyl]-5-methyl-1H-pyrazol-4-yl}pyridine-2-carboxylic acid]
- EC50 ([1]; Mus musculus): 66 nM
- Ki (GST-Bcl-xL): 3 nM

SMILES: COCCOC1(Cn2ncc(-c3ccc(N4CCc5cccc(C(=O)Nc6nc7ccccc7s6)c5C4)nc3C(=O)O)c2C)CCCCC1 [Example 101, 6-[8-(1,3-benzothiazol-2-ylcarbamoyl)-3,4-dihydroisoquinolin-2(1H)-yl]-3-(1-{[1-(2-methoxyethoxy)cyclohexyl]methyl}-5-methyl-1H-pyrazol-4-yl)pyridine-2-carboxylic acid]
- EC50 ([1]; Mus musculus): < 1 nM
- Ki (GST-Bcl-xL): 0.4 nM

SMILES: O=C(Nc1nc2ccccc2s1)c1cccc2c1CN(c1ccc(-c3cccc(Oc4ccccc4)c3)c(C(=O)O)n1)CC2 [Example 103, 6-[8-(1,3-benzothiazol-2-ylcarbamoyl)-3,4-dihydroisoquinolin-2(1H)-yl]-3-(3-phenoxyphenyl)pyridine-2-carboxylic acid]
- EC50 [1]: > 1000 nM
- Ki (GST-Bcl-xL): 0.6 nM

SMILES: O=C(Nc1nc2ccccc2s1)c1cccc2c1CN(c1ccc(-c3cccc(Oc4ccc([N+](=O)[O-])cc4)c3)c(C(=O)O)n1)CC2 [Example 104, 6-[8-(1,3-benzothiazol-2-ylcarbamoyl)-3,4-dihydroisoquinolin-2(1H)-yl]-3-[3-(4-nitrophenoxy)phenyl]pyridine-2-carboxylic acid]
- EC50 ([1]; Mus musculus): > 1000 nM
- Ki (GST-Bcl-xL): 14 nM

SMILES: O=C(Nc1nc2ccccc2s1)c1cccc2c1CN(c1ccc(-c3cccc(Oc4ccc(Cl)cc4)c3)c(C(=O)O)n1)CC2 [Example 105, 6-[8-(1,3-benzothiazol-2-ylcarbamoyl)-3,4-dihydroisoquinolin-2(1H)-yl]-3-[3-(4-chlorophenoxy)phenyl]pyridine-2-carboxylic acid]
- EC50 ([1]; Mus musculus): > 1000 nM
- Ki (GST-Bcl-xL): 7 nM

SMILES: O=C(Nc1nc2ccccc2s1)c1cccc2c1CN(c1ccc(-c3cccc(Cc4ccccc4)c3)c(C(=O)O)n1)CC2 [Example 106, 6-[8-(1,3-benzothiazol-2-ylcarbamoyl)-3,4-dihydroisoquinolin-2(1H)-yl]-3-(3-benzylphenyl)pyridine-2-carboxylic acid]
- EC50 ([1]; Mus musculus): 234 nM
- Ki (GST-Bcl-xL): 0.1 nM

SMILES: Cc1ccc(-c2ccc(N3CCc4cccc(C(=O)Nc5nc6ccccc6s5)c4C3)nc2C(=O)O)cc1Oc1ccccc1 [Example 108, 6-[8-(1,3-benzothiazol-2-ylcarbamoyl)-3,4-dihydroisoquinolin-2(1H)-yl]-3-(4-methyl-3-phenoxyphenyl)pyridine-2-carboxylic acid]
- EC50 ([1]; Mus musculus): > 1000 nM
- Ki (GST-Bcl-xL): 9 nM

SMILES: Cc1ccc(Oc2ccccc2)cc1-c1ccc(N2CCc3cccc(C(=O)Nc4nc5ccccc5s4)c3C2)nc1C(=O)O [Example 109, 6-[8-(1,3-benzothiazol-2-ylcarbamoyl)-3,4-dihydroisoquinolin-2(1H)-yl]-3-(2-methyl-5-phenoxyphenyl)pyridine-2-carboxylic acid]
- EC50 ([1]; Mus musculus): > 1000 nM
- Ki (GST-Bcl-xL): 49 nM
